Reference: patent US20120058997A1, “IMIDAZO[1,2-B]PYRIDAZINE AND PYRAZOLO[1,5-A]PYRIMIDINE DERIVATIVES AND THEIR USE AS PROTEIN KINASE INHIBITORS” (SuperGen, Inc., priority 2006, published 2012)
Values joined by “and” are separate entries in the source; they are usually repeats but may differ in a detail not shown here. Identical values can stand only once. Like-named read-outs stand apart in the source and are kept apart here.

Key:
K562 Cells = experiment: Cell growth inhibition, Cell-Titer-Glo, 96 hours; format: cell-based;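 further: luminescent ATP signal as an index of viable cell number, drug-treated versus cells given an equal volume of DMSO vehicle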
PC-3 Cells = experiment: Cell growth inhibition, Cell-Titer-Glo, 96 hours; format: cell-based; conditions: Homo sapiens;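 further: luciferase luminescence reflecting cellular ATP, used as a proxy for cell number, with compound-treated cells compared against DMSO vehicle control wells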
Pim-1 kinase = Pim-1 kinase (Homo sapiens, UniProt P11309); experiment: Promega Kinase-Glo Pim-1 kinase inhibition assay; format: biochemical;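 further: in vitro Pim-1 reaction run 2 h at 30 °C, then leftover ATP measured by luciferase luminescence, where signal falls as kinase activity rises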
Chain of Pim-1 kinase (P11309 whole entry): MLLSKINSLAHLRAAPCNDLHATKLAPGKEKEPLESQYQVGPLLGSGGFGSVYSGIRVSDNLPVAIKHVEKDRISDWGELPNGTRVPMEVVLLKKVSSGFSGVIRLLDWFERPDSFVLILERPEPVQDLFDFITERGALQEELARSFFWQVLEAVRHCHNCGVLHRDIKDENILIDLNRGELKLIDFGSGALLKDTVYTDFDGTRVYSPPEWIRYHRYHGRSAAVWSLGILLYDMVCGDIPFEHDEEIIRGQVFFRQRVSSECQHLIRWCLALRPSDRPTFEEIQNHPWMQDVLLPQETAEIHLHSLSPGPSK

[1] = Homo sapiens, K562, Table IX (results), read-out: IC50 (K562)
[2] = Table IX (results), read-out: IC50 (PC-3)
[3] = IC50 (Kinase inhibitory activity), Table V, Pim-1 kinase, Kinase-Glo
[4] = Homo sapiens, K562, read-out: IC50 K562 Cells (inhibit cell growth to 50% of untreated), Table VI
[5] = read-out: IC50 PC-3 Cells (inhibit cell growth to 50% of untreated), Table VI
[6] = Table VIII (results), values in uM, read-out: IC50(Kinase)
[7] = Table VIII (results), values in nM, read-out: IC50(Kinase)
[8] = Table X, Kinase-Glo, read-out: IC50 on Pim1

Row | IC50 (K562 Cells; [1]) | IC50 (PC-3 Cells; [2]) | Compound | other results
1 | 5.7 µM | 17.7 µM | COc1ccc(OC(F)(F)F)cc1-c1cnc2ccc(NCCC3CCN(C)CC3)nn12 [Compound 7-44, 3-(2-methoxy-5-(trifluoromethoxy)phenyl)-N-(2-(1-methylpiperidin-4-yl)ethyl)-imidazo[1,2-b]pyridazin-6-amine] | –
2 | – | – | NS(=O)(=O)c1ccc(CNc2ccc3ncc(-c4ccc(CCC(=O)O)cc4)n3n2)cc1 [Compound 1-1] | IC50 (Pim-1 kinase; [3]): 4.47 µM; IC50 (K562 Cells; [4]): > 300 µM; IC50 (PC-3 Cells; [5]): > 300 µM
3 | 271 µM | 87.2 µM | Fc1ccc(-c2ccc3ncc(-c4ccc(F)cc4)n3n2)cc1 [Compound 7-7] | IC50 (Pim-1 kinase; [6]): 9.76 µM
4 | 5.99 µM | 14.4 µM | CN1CCC(COc2ccc3ncc(-c4cccc(OC(F)(F)F)c4)n3n2)CC1 [Compound 7-33, 6-((1-methylpiperidin-4-yl)methoxy)-3-(3-(trifluoromethoxy)phenyl)imidazo[1,2-b]pyridazine] | IC50 (Pim-1 kinase; [7]): 0.405 µM and 0.282 µM
5 | 20.8 µM | 70.2 µM | Fc1cccc(-c2cnc3ccc(NC4CCCC4)nn23)c1 [Compound 7-15, N-cyclopentyl-3-(3-fluorophenyl)imidazo[1,2-b]pyridazin-6-amine] | IC50 (Pim-1 kinase; [6]): 5.35 µM
6 | 9.6 µM | 8.96 µM | COc1ccc(OC(F)(F)F)cc1-c1cnc2ccc(NCC3CCN(C)CC3)nn12 [Compound 7-42, 3-(2-methoxy-5-(trifluoromethoxy)phenyl)-N-((1-methylpiperidin-4-yl)methyl)-imidazo[1,2-b]pyridazin-6-amine] | –
7 | 19.1 µM | 63.2 µM | FC(F)(F)Oc1cccc(-c2ccc3ncc(-c4cccc(OC(F)(F)F)c4)n3n2)c1 [Compound 7-13] | –
8 | 25.3 µM | 29 µM | CC[C@@H](CO)Nc1ccc2ncc(-c3cccc(OC(F)(F)F)c3)n2n1 [Compound 7-32, (S)-2-(3-(3-(trifluoromethoxy)phenyl)imidazo[1,2-b]pyridazin-6-ylamino)butan-1-ol] | IC50 (Pim-1 kinase; [7]): 0.095 µM; IC50 (Pim-1 kinase; [6]): 1.55 µM; IC50 (K562 Cells; Table IX (results), read-out: IC50 (K562)): 20 µM
9 | – | – | Cc1ccc(S(=O)(=O)Nc2ccc(Nc3ccn4ncc(-c5cccc(N)c5)c4n3)cc2)cc1 [Compound 3-9] | IC50 (K562 Cells; [4]): 20.6 µM; IC50 (PC-3 Cells; [5]): 12 µM
10 | – | – | Cc1ccc(S(=O)(=O)Nc2ccc(Nc3ccn4ncc(-c5cccc(N(C)C)c5)c4n3)cc2)cc1 [Compound 3-13] | IC50 (Pim-1 kinase; [3]): 52.1 µM; IC50 (K562 Cells; [4]): 29.3 µM; IC50 (PC-3 Cells; [5]): 12.8 µM
11 | 1.41 µM | 5.68 µM | CCN1CCC(CNc2nn3c(-c4cccc(OC(F)(F)F)c4)cnc3cc2C)CC1 [Compound 7-38, N-((1-ethylpiperidin-4-yl)methyl)-7-methyl-3-((trifluoromethoxy)phenyl)imidazo [1,2-b]pyridazin-6-amine] | –
12 | 4.9 µM | – | CN1CCC(CNc2ccc3ncc(-c4cc(OC(F)(F)F)ccc4O)n3n2)CC1 [Compound 7-43, 3-(2-hydroxy-5-(trifluoromethoxy)phenyl)-N-((1-methylpiperidin-4-yl)methyl)-imidazo[1,2-b]pyridazin-6-amine] | IC50 (Pim-1 kinase; [6]): 1.1 µM
13 | – | – | CCC(CO)Nc1ccc2ncc(-c3ccc(NS(C)(=O)=O)cc3)n2n1 (centres unmarked) [Compound 1-3] | IC50 (Pim-1 kinase; [3]): 5.35 µM; IC50 (K562 Cells; [4]): 80.2 µM; IC50 (PC-3 Cells; [5]): 39 µM
14 | 9.14 µM | 9.26 µM | FC(F)(F)Oc1cccc(-c2cnc3ccc(NCCN4CCCC4)nn23)c1 [Compound 7-30, N-(2-(pyrrolidin-1-yl)ethyl)-3-(3-(trifluoromethoxy)phenyl)imidazol[1,2-b]pyridazin-6-amine] | IC50 (Pim-1 kinase; [7]): 0.761 µM
15 | 5.7 µM | 17.7 µM | COc1ccc(OC(F)(F)F)cc1-c1cnc2ccc(NCC3CCN(C(C)C)CC3)nn12 [Compound 7-48, N-((1-isopropylpiperidin-4-yl)methyl)-3-(2-methoxy-5-(trifluoromethoxy)phenyl)-imidazo[1,2-b]pyridazin-6-amine] | –
16 | – | – | CO[C@H]1CC[C@H](Nc2ccn3ncc(-c4cccc(Cl)c4)c3n2)CC1 [Compound 8-64] | IC50 (Pim-1 kinase; [8]): 0.01 to 0.1 µM
17 | 5.3 µM | 10.6 µM | CCN1CCC(CNc2ccc3ncc(-c4cc(OC(F)(F)F)ccc4OC)n3n2)CC1 [Compound 7-46, N-((1-ethylpiperidin-4-yl)methyl)-3-(2-methoxy-5-(trifluoromethoxy)phenyl)-imidazol[1,2-b]pyridazin-6-amine] | –
18 | – | – | O[C@H]1C[C@H](CNc2ccc3ncc(-c4cccc(OC(F)(F)F)c4)n3n2)C1 [Compound 8-7, 3-(((3-(3-(Trifluoromethoxy)phenyl)imidazo[1,2-b]pyridazin-6-yl)amino)methyl)-trans-cyclobutanol] | IC50 (Pim-1 kinase; [8]): 0.01 to 0.1 µM
19 | 2.92 µM | 12.8 µM | CC(C)N1CCC(CNc2ccc3ncc(-c4cccc(OC(F)(F)F)c4)n3n2)CC1 [Compound 7-35, N-((1-isopropylpiperidin-4-yl)methyl)-3-(3(trifluoromethoxy)phenyl)imidazo[1,2b]pyridazin-6-amine] | –

Row | IC50 (K562 Cells; [1]) | IC50 (PC-3 Cells; [2]) | Compound | other results
20 | – | – | COc1ccc(CNc2ccc3ncc(-c4cccc(OC(F)(F)F)c4)n3n2)cc1 [Compound 8-43, N-(4-Methoxybenzyl)-3-(3-(trifluoromethoxy)phenyl)imidazo[1,2-b]pyridazin-6-amine] | IC50 (Pim-1 kinase; [8]): 0.1 to 1 µM
21 | – | – | CC(C)(O)C(=O)N1CCC(CNc2ccc3ncc(-c4cccc(OC(F)(F)F)c4)n3n2)CC1 [Compound 8-20, 2-Hydroxy-2-methyl-1-(4-(((3-(3-(trifluoromethoxy)phenyl)imidazo[1,2-b]pyridazin-6-yl)amino)methyl)piperidin-1-yl)propan-1-one] | IC50 (Pim-1 kinase; [8]): 0.01 to 0.1 µM
22 | 3.89 µM | 8.95 µM | Cc1cc2ncc(-c3cccc(OC(F)(F)F)c3)n2nc1NCC1CCN(C)CC1 [Compound 7-37, 7-Methyl-N-((1-methylpiperidin-4-yl)methyl)-3-(3-(trifluoromethoxy)phenyl)-imidazo[1,2-b]pyridazin-6-amine] | IC50 (Pim-1 kinase; [7]): 0.013 µM
23 | 5.82 µM | – | CC[C@@H](N)COc1ccc2ncc(-c3cccc(OC(F)(F)F)c3)n2n1 [Compound 7-18, (R)-1-(3-(3-(trifluoromethoxy)phenyl)imidazo[1,2-b]pyridazin-6-yloxy)butan-2-amine] | IC50 (Pim-1 kinase; [7]): 0.481 µM
24 | – | – | O=S1(=O)CCC(CNc2ccn3ncc(-c4cccc(Cl)c4)c3n2)CC1 [Compound 8-66] | IC50 (Pim-1 kinase; [8]): 0.1 to 1 µM
25 | 6.76 µM | 21.2 µM | Fc1cccc(-c2ccc3ncc(-c4cccc(F)c4)n3n2)c1 [Compound 7-9] | IC50 (Pim-1 kinase; [6]): 86.6 µM
26 | – | – | O=S1(=O)CCC(CNc2ccc3ncc(-c4cccc(Cl)c4)n3n2)CC1 [Compound 8-40, 4-(((3-(3-Chlorophenyl)imidazo[1,2-b]pyridazin-6-yl)amino)methyl)tetrahydro-2H-thiopyran 1,1-dioxide] | IC50 (Pim-1 kinase; [8]): 0.1 to 1 µM
27 | 1.73 µM | 7.21 µM | Cc1cc2ncc(-c3cccc(OC(F)(F)F)c3)n2nc1OCC1CCN(C)CC1 [Compound 7-34, 7-methyl-6-((1-methylpiperidin-4-yl)methoxy)-3-(3(trifluoromethoxy)phenyl) imidazo[1,2-b]pyridazine] | IC50 (Pim-1 kinase; [7]): 0.272 µM
28 | – | – | COCCOc1ccc2ncc(-c3cccc(OC(F)(F)F)c3)n2n1 [Compound 8-42, 6-(2-Methoxyethoxy)-3-(3-(trifluoromethoxy)phenyl)imidazo[1,2-b]pyridazine] | IC50 (Pim-1 kinase; [8]): 1 to 5 µM
29 | 6.91 µM | 33.3 µM | O=C(C1CC1)N1CCC(CNc2ccc3ncc(-c4cccc(OC(F)(F)F)c4)n3n2)CC1 [Compound 7-36, Cyclopropyl(4-((3-(3-(trifluoromethoxy)phenyl)imidazo[1,2-b]pyridazin-6-ylamino)methyl)piperidin-1-yl)methanone] | IC50 (Pim-1 kinase; [7]): 0.073 µM
30 | 1.66 µM | 5.82 µM | CCN1CCC(CNc2ccc3ncc(-c4cccc(OC(F)(F)F)c4)n3n2)CC1 [Compound 7-39, N-((1-ethylpiperidin-4-yl)methyl)-3-(3-(trifluoromethoxy)phenyl)imidazo[1,2-b]pyridazin-6-amine] | –
31 | 11.3 µM | 57.4 µM | CCN1CCC(CNc2ccc3ncc(-c4cc(OC(F)(F)F)ccc4O)n3n2)CC1 [Compound 7-47, N-((1-ethylpiperidin-4-yl)methyl)-3-(2-hydroxy-5-(trifluoromethoxy)phenyl)-imidazo[1,2-b]pyridazin-6-amine] | IC50 (Pim-1 kinase; [7]): 0.31 µM
32 | – | – | CC(C)(O)[C@H]1CC[C@H](Nc2ccc3ncc(-c4cccc(C(F)(F)F)c4)n3n2)CC1 [Compound 8-31] | IC50 (Pim-1 kinase; [8]): < 0.01 µM
33 | – | – | C[C@]1(O)CC[C@H](Nc2ccn3ncc(-c4cccc(C(F)(F)F)c4)c3n2)CC1 [Compound 8-55, 1-Methyl-4-((3-(3-(trifluoromethyl)phenyl)pyrazolo[1,5-a]pyrimidin-5-yl)amino)-trans-cyclohexanol] | IC50 (Pim-1 kinase; [8]): 0.01 to 0.1 µM
34 | 14.9 µM | 52 µM | CN1CCC(CCNc2ccc3ncc(-c4cc(OC(F)(F)F)ccc4O)n3n2)CC1 [Compound 7-45, 3-(2-Hydroxyl-5-(trifluoromethoxy)phenyl)-N-(2-(1-methylpiperidin-4-yl)ethyl)-imidazo[1,2-b]pyridazin-6-amine] | –
35 | – | – | FC(F)(F)Oc1cccc(-c2cnc3ccc(NCCN4CCOCC4)nn23)c1 [Compound 8-44, N-(2-morpholinoethyl)-3-(3-(trifluoromethoxy)phenyl)imidazo[1,2-b]pyridazin-6-amine] | IC50 (Pim-1 kinase; [8]): 0.01 to 0.1 µM
36 | – | – | CC(C)N1CCC(CNc2ccc3ncc(-c4cc(OC(F)(F)F)ccc4O)n3n2)CC1 [Compound 7-49, N-((1-isopropylpiperidin-4-yl)methyl)-3-(2-hydroxy-5-(trifluoromethoxy)phenyl)-imidazo[1,2-b]pyridazin-6-amine] | IC50 (Pim-1 kinase; [7]): 0.31 µM
37 | – | – | O[C@H]1CC[C@H](Oc2ccc3ncc(-c4cccc(OC(F)(F)F)c4)n3n2)CC1 [Compound 8-4, 4-((3-(3-(Trifluoromethoxy)phenyl)imidazo[1,2-b]pyridazin-6-yl)oxy)-trans-cyclohexanol] | IC50 (Pim-1 kinase; [8]): < 0.01 µM
